These results are taken from patent US20190133124A1, “BACILLUS AND LIPOCHITOOLIGOSACCHARIDE FOR IMPROVING PLANT GROWTH” (NOVOZYMES BIOAG A/S, priority 2016, published 2019).

The subject of experiment [1] is corn seeds (Monsanto, DKC 63-33). As to the kind of experiment: Metro-Mix 830 system (growth chamber): corn seedling dry weight after seed treatment with Bacillus amyloliquefaciens and Myc factor. In kind it is in vivo. As to the method:
A study was performed to determine the effect of Bacillus amyloliquefaciens, LCOs, or combinations of Bacillus amyloliquefaciens and LCOs on corn growth. Corn seeds were treated with Bacillus amyloliquefaciens strain SB3281 bacteria alone, or in combination with an LCO IV (C16:0, S) Myc factor (FIG. 1B). In this study, corn seeds treated with Bacillus amyloliquefaciens alone or Myc factor alone were compared to non-treated control corn seeds. In addition, corn seeds treated with Bacillus amyloliquefaciens and Myc factor were included in the study. Seeds treated as above were tested in a system designed to test various parameters of early emergence of treated seeds. In this system, the treated seeds were planted in Metro-Mix® 830 (Sun Gro Horticulture; […], Mass., U.S.) and grown in a growth chamber (25° C., 60% relative humidity, 18/6 hour light/dark cycle). Germination trays (12 rows of 6 wells) were filled with moist Metro-Mix® 830. Treated seeds were sown into the wells (30 wells per seed treatment) and grown in the growth chamber for 8 days. The seedlings were harvested, and dry weights of roots/shoots from the seedlings were obtained. To measure the dry weight, the soil was removed from the roots, and dry weights of the roots/shoots and biomass per seedling were determined as described in Example 1. To obtain the Bacillus amyloliquefaciens bacterium for the study, strain SB3281 (ATCC PTA-7542) was grown as described in Example 1. Samples of the bacteria were taken from the culture at 24 hrs (T1). The number of bacteria in the cultures at the various time points was determined by plating serial dilutions from the cultures on SMA plates and the colonies that formed were counted and multiplied by the dilution factor. The number of spores in the cultures were determined by heating aliquots from the cultures at 80° C. in a water bath for 10 minutes to kill vegetative cells. Serial dilutions were plated as above and colony counts multiplied by the dilution factor. Corn seeds were treated by applying a total of 500 μl of treatment substances (e.g., bacteria, LCO, etc.) to 50 g of corn seeds (Monsanto, DKC 63-33). The seeds were allowed to dry at room temperature in bags for 3-4 hours before used in the Metro-Mix® experiments. Control seeds were treated with 500 μl of water. Another group of seeds was treated with 500 μl of a Bacillus amyloliquefaciens culture. A third group of seeds was treated with 500 μl of a 10^-9 M solution of Myc factor. A fourth group of seeds was treated with 250 μl of the Bacillus amyloliquefaciens culture and 250 μl of a 10^-9 M solution of Myc factor.

Experiment [2] shares this test system. As to the kind of experiment: Moist chamber system: corn seedling dry weight after seed treatment with Bacillus amyloliquefaciens and Nod factor. The format is in vivo. As to the method: A study was performed to determine the effect of seed treatment of Bacillus amyloliquefaciens, a Nod factor, or a combination of Bacillus amyloliquefaciens and a Nod factor on corn growth. Corn seeds were treated with Bacillus amyloliquefaciens strain SB3281 bacteria alone, an LCO V (C18:1) Nod factor (FIG. 1A) alone, or a combination of the bacterial strain and Nod factor. Seeds treated as above were tested in a system designed to test various parameters of early seed germination. In this system, the seeds were placed on moist germination paper, in petri dishes, in a representative mock moist chamber experiment (for each seed treatment, 3 petri dishes, each with 5 seeds per dish, were used; 10 ml of deionized water was added to the germination paper per dish). The seeds were allowed to grow in the petri dishes at room temperature for approximately 2 weeks. After that time, various parameters of the seedlings were measured. The lengths of roots/shoots were measured in some experiments. In some experiments, the dry weights of the roots/shoots were determined after dissecting roots from shoots, drying the roots/shoots (placed in a coin envelope) in a 70° C. oven for 2 days, and weighing the roots/shoots. The individual biomass per seedling was determined from these measurements in order to find the average biomass per treatment. To obtain the Bacillus amyloliquefaciens bacterium for the study, strain SB3281 (ATCC PTA-7542) was maintained on Standard Methods Agar (“SMA”; Smith River Biologicals; Ferrum, Va., U.S.). Single colonies were selected from SMA and used to inoculate 5 ml of LB medium. Twenty-four hour old LB cultures were used to inoculate a 250 ml flask containing 100 ml of Si medium (per liter contained 9.4 g of yeast extract, 9.4 g of corn syrup solids, 0.5 g of magnesium chloride hexahydrate, 0.2 g of manganese (II) chloride tetrahydrate, 0.2 g of calcium chloride dehydrate, and 0.27 g of sodium hydroxide, pH 7.0). The flask was incubated at 30° C. on a shaker at 165 rpm. Samples of the bacteria were taken from the culture at 7 days (T7). The number of bacteria in the cultures at the various time points was determined by plating serial dilutions from the cultures on SMA plates and the colonies that formed were counted and multiplied by the dilution factor. The number of spores in the cultures were determined by heating aliquots from the cultures at 80° C. in a water bath for 10 minutes to kill vegetative cells. Serial dilutions were plated as above and colony counts multiplied by the dilution factor. Generally, the cultures contained 10^9 bacteria or spores per ml. Corn seeds were treated by applying a total of 500 μl of treatment substances (e.g., bacteria, LCO, etc.) to 50 g of corn seeds (Monsanto, DKC 63-33). The seeds were allowed to dry at room temperature in bags for 3-4 hours before used in the moist chamber experiments. For treatment of seeds with a single substance (e.g., bacteria alone, LCO alone), 500 μl of the bacterial culture was used, or 500 μl of a LCO solution that contained 6 μl of a 10^−8 M LCO stock solution in 100 ml of buffer was used. For treatment of seeds with two substances (e.g., bacteria and an LCO), 250 μl of the bacterial culture and 250 μl of the 6×10^−13 M LCO stock solution was used. Negative control corn seeds were treated with 500 μl of water. […]

For `CCCCCCCCCCCCCCCC(=O)N[C@H]1[C@H](O[C@H]2[C@H](O)[C@@H](NC(C)=O)[C@H](O[C@H]3[C@H](O)[C@@H](NC(C)=O)[C@H](O[C@H]4[C@H](O)[C@@H](NC(C)=O)C(O)O[C@@H]4COS(=O)(=O)O)O[C@@H]3CO)O[C@@H]2CO)O[C@H](CO)[C@@H](O)[C@@H]1O` (stereo partly shown) [Myc factor, LCO IV (C16:0, S)], in experiment [1] (Metro-Mix 830, growth chamber 25° C., 8 days, culture grown 1 day (T1), single: 500 μl culture or 500 μl 10^−9 M Myc factor, combination: 250 μl + 250 μl, per 50 g seeds), the “Average individual seedling dry weight” value was determined as 0.1921 g. The “Decrease in seedling dry weight versus control” value in experiment [1] (difference to control 0.1985 g, Metro-Mix 830) was 0.0064 g. For the same molecule, the “Change in seedling dry weight over control (about %)” value in experiment [1] (rounded, Metro-Mix 830) is recorded as “about −3.2%”. In addition, the “Effect on corn plant growth (in words)” value in experiment [1] (seedling dry weight, Metro-Mix 830) is “appeared to have a negative effect on corn plant growth”. In experiment [1] (vs water-treated control, Metro-Mix 830, 8 days), the “Percent increase seedling dry weight over control” value is −3.22%.
In the case of LCO V (C18:1) [Nod factor], in experiment [2] (approximately 2 weeks, T7 culture, single: 500 μl culture or 500 μl 6×10^−13 M LCO, combination: 250 μl + 250 μl, per 50 g seeds), the “Average individual seedling dry weight” value was 0.2244 g. The “Increase in seedling dry weight over control” value in experiment [2] (difference to control 0.2190 g) is 0.0054 g. Besides, the “Increase in seedling dry weight over control (about %)” value in experiment [2] (rounded) is “about 2.5%”. In addition, in experiment [2] (seedling dry weight), the “Effect on corn plant growth (in words)” value was “increased corn plant growth”. Moreover, the “Percent increase seedling dry weight over control” value in experiment [2] (vs water-treated control) is 2.47%.
